Measured values reported in ChEMBL document CHEMBL1135619, “Cyclosporins: structure-activity relationships for the inhibition of the human MDR1 P-glycoprotein ABC transporter” (J Med Chem, 2002).
pIC50: −log10 of the molar value. Where a SMILES comes first, the peptide text is derived from it. [ ]: non-standard residue; d: D form. NMeBmt(8-OH) = CN[C@H](C(=O)O)[C@H](O)[C@H](C)C/C=C/CO; MeBmt = C/C=C/C[C@@H](C)[C@@H](O)[C@H](NC)C(=O)O; Val(2S-OH) = CC(C)[C@](N)(O)C(=O)O; NMeL = CN[C@@H](CC(C)C)C(=O)O; NMeV = CN[C@H](C(=O)O)C(C)C; Sar = CNCC(=O)O

These compounds were tested against ATP-dependent translocase ABCB1 (Homo sapiens, UniProt P08183) (assay: (§1) Inhibitory activity against Human MDR1 P-Glycoprotein ABC Transporter using leukemia CEM cells). Conditions: not given.
Chain of ATP-dependent translocase ABCB1 (P08183 whole entry): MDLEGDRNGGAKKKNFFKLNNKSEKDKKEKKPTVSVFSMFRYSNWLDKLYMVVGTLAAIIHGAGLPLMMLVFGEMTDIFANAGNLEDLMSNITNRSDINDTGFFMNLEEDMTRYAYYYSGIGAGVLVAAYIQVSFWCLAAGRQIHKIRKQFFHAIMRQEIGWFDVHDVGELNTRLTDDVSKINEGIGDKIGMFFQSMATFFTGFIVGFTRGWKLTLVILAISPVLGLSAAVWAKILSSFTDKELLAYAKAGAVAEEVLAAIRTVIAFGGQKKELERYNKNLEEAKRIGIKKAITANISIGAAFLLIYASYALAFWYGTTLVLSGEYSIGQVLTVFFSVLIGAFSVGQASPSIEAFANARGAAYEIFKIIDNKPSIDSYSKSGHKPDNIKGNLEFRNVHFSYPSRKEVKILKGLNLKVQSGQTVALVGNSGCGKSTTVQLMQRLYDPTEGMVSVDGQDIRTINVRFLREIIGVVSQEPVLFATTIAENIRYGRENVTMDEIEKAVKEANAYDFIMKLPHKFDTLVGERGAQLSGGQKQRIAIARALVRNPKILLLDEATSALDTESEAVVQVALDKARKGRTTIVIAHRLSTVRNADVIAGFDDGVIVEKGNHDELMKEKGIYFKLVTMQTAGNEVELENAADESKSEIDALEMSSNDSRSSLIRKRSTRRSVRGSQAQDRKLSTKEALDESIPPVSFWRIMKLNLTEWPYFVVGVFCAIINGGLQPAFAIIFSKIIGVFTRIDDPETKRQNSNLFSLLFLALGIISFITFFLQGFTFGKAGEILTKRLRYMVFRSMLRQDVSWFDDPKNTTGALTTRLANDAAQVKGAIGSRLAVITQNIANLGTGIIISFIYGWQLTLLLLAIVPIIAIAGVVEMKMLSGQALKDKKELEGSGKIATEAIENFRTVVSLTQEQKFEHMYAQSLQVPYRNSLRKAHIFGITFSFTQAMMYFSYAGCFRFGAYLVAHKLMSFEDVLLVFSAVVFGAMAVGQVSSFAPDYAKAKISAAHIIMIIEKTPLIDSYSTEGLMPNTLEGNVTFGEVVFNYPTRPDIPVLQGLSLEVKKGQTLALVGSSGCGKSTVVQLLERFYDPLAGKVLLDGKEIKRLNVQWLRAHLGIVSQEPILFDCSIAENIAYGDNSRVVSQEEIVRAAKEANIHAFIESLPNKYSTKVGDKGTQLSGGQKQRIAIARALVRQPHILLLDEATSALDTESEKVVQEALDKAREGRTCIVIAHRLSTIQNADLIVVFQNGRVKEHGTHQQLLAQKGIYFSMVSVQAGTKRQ

pIC50	SMILES
5.46	C/C=C/C[C@@H](C)[C@@H](O)[C@H]1C(=O)N[C@@H](CC)C(=O)N2CCC[C@@H]2C(=O)N(C)[C@@H](CC(C)C)C(=O)N[C@@H](C(C)C)C(=O)N(C)[C@@H](CC(C)C)C(=O)N[C@@H](C)C(=O)N[C@H](C)C(=O)N(C)[C@@H](CC(C)C)C(=O)N(C)[C@@H](CC(C)C)C(=O)N(C)[C@@H](C(C)C)C(=O)N1C
5.28	C/C=C/C[C@@H](C)[C@@H](O)[C@H]1C(=O)N[C@@H](CC)C(=O)N2CCC[C@H]2C(=O)N(C)[C@@H](CC(C)C)C(=O)N[C@@H](C(C)C)C(=O)N(C)[C@@H](CC(C)C)C(=O)N[C@@H](C)C(=O)N[C@H](C)C(=O)N(C)[C@@H](CC(C)C)C(=O)N(C)[C@@H](CC(C)C)C(=O)N(C)[C@@H](C(C)C)C(=O)N1C
5.09	CC[C@@H]1NC(=O)[C@H](CC2CCCCC2)N(C)C(=O)[C@H](C(C)C)N(C)C(=O)[C@H](CC(C)C)N(C)C(=O)[C@H](CC(C)C)N(C)C(=O)[C@@H](C)NC(=O)[C@H](C)NC(=O)[C@H](CC(C)C)N(C)C(=O)[C@H](C(C)C)NC(=O)[C@H](CC(C)C)N(C)C(=O)CN(C)C1=O
5.66	C/C=C/C[C@@H](C)C[C@H]1C(=O)N[C@@H](CC)C(=O)N(C)CC(=O)N(C)[C@@H](CC(C)C)C(=O)N[C@@H](C(C)C)C(=O)N(C)[C@@H](CC(C)C)C(=O)N[C@@H](C)C(=O)N[C@H](C)C(=O)N(C)[C@@H](CC(C)C)C(=O)N(C)[C@@H](CC(C)C)C(=O)N(C)[C@@H](C(C)C)C(=O)N1C
< 4.00	C/C=C/C[C@@H](C)[C@@H](O)[C@H]1C(=O)N[C@@H]([C@@H](C)O)C(=O)N(C)CC(=O)N[C@@H](C(C)C)C(=O)N[C@@H](C(C)C)C(=O)N(C)[C@@H](CC(C)C)C(=O)N[C@@H](C)C(=O)N[C@H](C)C(=O)N(C)[C@@H](CC(C)C)C(=O)N(C)[C@@H](CC(C)C)C(=O)N(C)[C@@H](C(C)C)C(=O)N1C
5.40	CCCCCC[C@H]1C(=O)N[C@@H](CC)C(=O)N(C)CC(=O)N(C)[C@@H](CC(C)C)C(=O)N[C@@H](C(C)C)C(=O)N(C)[C@@H](CC(C)C)C(=O)N[C@@H](C)C(=O)N[C@H](C)C(=O)N(C)[C@@H](CC(C)C)C(=O)N(C)[C@@H](CC(C)C)C(=O)N(C)[C@@H](C(C)C)C(=O)N1C
< 4.52	C/C=C/C[C@@H](C)[C@@H](O)[C@H]1C(=O)N[C@@H](CC)C(=O)NCC(=O)N(C)[C@@H](CC(C)C)C(=O)N[C@@H](C(C)C)C(=O)N(C)[C@@H](CC(C)C)C(=O)N[C@@H](C)C(=O)N[C@H](CO)C(=O)N(C)[C@@H](CC(C)C)C(=O)N(C)[C@@H](CC(C)C)C(=O)N(C)[C@@H](C(C)C)C(=O)N1C
4.25	C/C=C/C[C@@H](C)[C@@H](O)[C@H]1C(=O)N[C@@H]([C@@H](C)O)C(=O)N(C)CC(=O)N(C)[C@@H](CC(C)C)C(=O)N[C@@H](CC(C)C)C(=O)N(C)[C@@H](CC(C)C)C(=O)N[C@@H](C)C(=O)N[C@H](C)C(=O)N(C)[C@@H](CC(C)C)C(=O)N[C@@H](C)C(=O)N(C)[C@@H](C(C)C)C(=O)N1C (cyclo(A[NMeV][MeBmt]T[Sar][NMeL]L[NMeL]A[dA][NMeL]))
5.22	C/C=C/C[C@@H](C)[C@@H](O)[C@H]1C(=O)N[C@@H]([C@@H](C)O)C(=O)N(C)CC(=O)N(C)[C@@H](CC(C)C)C(=O)N[C@@H](CC(C)C)C(=O)N(C)[C@@H](CC(C)C)C(=O)N[C@@H](C)C(=O)N[C@H](C)C(=O)N(C)[C@@H](CC(C)C)C(=O)N[C@@H](CC(C)C)C(=O)N(C)[C@@H](C(C)C)C(=O)N1C (cyclo(A[dA][NMeL]L[NMeV][MeBmt]T[Sar][NMeL]L[NMeL]))
5.15	CC(C)C[C@H]1C(=O)N[C@@H](C(C)C)C(=O)N(C)[C@@H](CC(C)C)C(=O)N[C@@H](C)C(=O)N[C@H](C)C(=O)N(C)[C@@H](CC(C)C)C(=O)N(C)[C@@H](CC(C)C)C(=O)N(C)[C@@H](C(C)C)C(=O)N(C)[C@@H](CC(C)C)C(=O)N[C@@H](C(C)C)C(=O)N(C)CC(=O)N1C (cyclo(A[dA][NMeL][NMeL][NMeV][NMeL]V[Sar][NMeL]V[NMeL]))

SMILES	pIC50
C/C=C/C[C@@H](C)[C@@H](O)[C@H]1C(=O)N[C@@H]([C@@H](C)O)C(=O)NCC(=O)N(C)[C@@H](CC(C)C)C(=O)N[C@@H](CC(C)C)C(=O)N(C)[C@@H](CC(C)C)C(=O)N[C@@H](C)C(=O)N[C@](O)(C(C)C)C(=O)N(C)[C@@H](CC(C)C)C(=O)N[C@@H](CC(C)C)C(=O)N(C)[C@@H](C(C)C)C(=O)N1C (cyclo(A[Val(2S-OH)][NMeL]L[NMeV][MeBmt]TG[NMeL]L[NMeL]))	5.40
C/C=C/C[C@@H](C)[C@@H](O)[C@H]1C(=O)N[C@@H]([C@@H](C)O)C(=O)N(C)CC(=O)N[C@@H](CC(C)C)C(=O)N[C@@H](CC(C)C)C(=O)N(C)[C@@H](CC(C)C)C(=O)N[C@@H](C)C(=O)N[C@](O)(C(C)C)C(=O)N(C)[C@@H](CC(C)C)C(=O)N[C@@H](CC(C)C)C(=O)N(C)[C@@H](C(C)C)C(=O)N1C (cyclo(A[Val(2S-OH)][NMeL]L[NMeV][MeBmt]T[Sar]LL[NMeL]))	5.37
C/C=C/C[C@@H](C)[C@@H](O)[C@H]1C(=O)N[C@@H]([C@@H](C)O)C(=O)N(C)CC(=O)N(C)[C@@H](CC(C)C)C(=O)N[C@@H](CC(C)C)C(=O)N(C)[C@@H](CC(C)C)C(=O)N[C@@H](C)C(=O)N[C@](O)(C(C)C)C(=O)N(C)[C@@H](CC(C)C)C(=O)N[C@@H](CC(C)C)C(=O)N(C)[C@@H](C(C)C)C(=O)N1C (cyclo(A[Val(2S-OH)][NMeL]L[NMeV][MeBmt]T[Sar][NMeL]L[NMeL]))	5.80
C/C=C/C[C@@H](C)[C@@H](O)[C@H]1C(=O)N[C@@H]([C@@H](C)O)C(=O)N(C)CC(=O)N(C)[C@@H](CC(C)C)C(=O)N[C@@H](C(C)C)C(=O)N(C)[C@@H](CC(C)C)C(=O)N[C@@H](C)C(=O)N[C@](O)(C(C)C)C(=O)N(C)[C@@H](CC(C)C)C(=O)N[C@@H](CC(C)C)C(=O)N(C)[C@@H](C(C)C)C(=O)N1C (cyclo(A[Val(2S-OH)][NMeL]L[NMeV][MeBmt]T[Sar][NMeL]V[NMeL]))	5.68

What follows are compounds tested against MDR1 P-glycoprotein (ABCB1) (Homo sapiens, UniProt P08183) (assay: as §1). Conditions: human, leukemia CEM cells.
Chain of MDR1 P-glycoprotein (ABCB1) (P08183 whole entry): as above

pIC50	SMILES
4.77	C/C=C/C[C@@H](C)[C@@H](O)C1NC(=O)[C@H](C(C)C)N(C)C(=O)[C@H](CC(C)C)N(C)C(=O)[C@H](CC(C)C)N(C)C(=O)[C@@H](C)NC(=O)[C@H](C)NC(=O)[C@@H](CC(C)C)N(C)C(=O)[C@@H](C(C)C)NC(=O)[C@@H](CC(C)C)N(C)C(=O)CN(C)C(=O)[C@H]([C@@H](C)O)NC1=O (some centres undefined)
4.88	CC[C@@H]1NC(=O)[C@H](C2CCCCC2C)N(C)C(=O)[C@H](C(C)C)N(C)C(=O)[C@H](CC(C)C)N(C)C(=O)[C@H](CC(C)C)N(C)C(=O)[C@@H](C)NC(=O)[C@H](C)NC(=O)[C@H](CC(C)C)N(C)C(=O)[C@H](C(C)C)NC(=O)[C@H](CC(C)C)N(C)C(=O)CN(C)C1=O (some centres undefined)
5.82	CC/C=C/C[C@@H](C)[C@@H](O)[C@H]1C(=O)N[C@@H](CC)C(=O)N(C)[C@@H](Cc2ccccc2)C(=O)N(C)[C@H](CC(C)C)C(=O)N[C@H](C(C)C)C(=O)N(C)[C@H](CC(C)C)C(=O)N[C@@H](C)C(=O)N[C@H](C)C(=O)N(C)[C@@H](CC(C)C)C(=O)N(C)[C@@H](CC(C)C)C(=O)N(C)[C@@H](C(C)C)C(=O)N1C

SMILES	pIC50
C/C=C/C[C@@H](C)[C@@H](O)[C@H]1C(=O)N[C@@H]([C@@H](C)O)C(=O)N(C)CC(=O)N(C)[C@@H](CC(C)C)C(=O)N[C@@H]([C@@H](C)CC)C(=O)N(C)[C@@H](CC(C)C)C(=O)N[C@@H](C)C(=O)N[C@](O)(C(C)C)C(=O)N(C)[C@@H](CC(C)C)C(=O)N[C@@H](CC(C)C)C(=O)N(C)[C@@H](C(C)C)C(=O)N1C (cyclo(A[Val(2S-OH)][NMeL]L[NMeV][MeBmt]T[Sar][NMeL]I[NMeL]))	5.80
CC(C)C[C@@H]1NC(=O)[C@H](CC(C)C)N(C)C(=O)[C@@](O)(C(C)C)NC(=O)[C@H](C)NC(=O)[C@H](CC(C)C)N(C)C(=O)[C@H](CC(C)C)NC(=O)[C@H](CC(C)C)N(C)C(=O)CN(C)C(=O)[C@H]([C@@H](C)O)NC(=O)[C@H]([C@H](O)[C@H](C)C/C=C/CO)N(C)C(=O)[C@H](C(C)C)N(C)C1=O (cyclo(A[Val(2S-OH)][NMeL]L[NMeV][NMeBmt(8-OH)]T[Sar][NMeL]L[NMeL]))	4.80
